US20230218624A1 (Urovant Sciences GmbH, priority 2017, published 2023)
Several values for one entry are separate records, joined by “and”; a condition that tells them apart may be missing. Equal entries are not always repeated. Marks after values point to notes of the source that are not given here.

Legend:
[1] = Dose-Cmax and dose-AUC models and simulations from Phase 1 data; design: species or system human
Procedure: Exposure, and therefore risk of adverse-events can be further reduced with a 50 mg dose.

[2] = Drug interaction study of vibegron 75 mg and rifampin; type: in vivo, human
[3] = PK in patients with renal impairment; conditions: for AUC0-inf, geometric least squares mean / Apparent terminal t1/2, geometric mean (% geometric CV) / CL/F, geometric least squares mean / CLR, geometric mean (% geometric CV) / Cmax, geometric least squares mean / Fe[urine]48 hr, geometric mean (% geometric CV) / Tmax (median): single dose 100 mg
Description: The relationship between clearance and renal function was modeled using linear regression.

[4] = PK in patients with moderate hepatic impairment; conditions: single dose 100 mg
[5] = Vibegron + Rifampin 600 mg QD, single dose 75 mg, healthy adults
[6] = Vibegron alone, single dose 75 mg, healthy adults
[7] = healthy matched control subjects

SMILES: O=C(Nc1ccc(C[C@@H]2CC[C@H]([C@H](O)c3ccccc3)N2)cc1)[C@@H]1CCc2nccc(=O)n21 [Vibegron, (6S)—N-[4-[[(2S,5R)-5-[(R)-hydroxy(phenyl)methyl]pyrrolidin-2-yl]methyl]phenyl]-4-oxo-7,8-dihydro-6H-pyrrolo[1,2-a]pyrimidine-6-carboxamide]
- Cmax of 75 mg lower than 400 mg single dose ([1]; estimation): ~9.2 fold
- increase in Cmax ([1]; increase in dose from 50 to 100 mg): ~3 fold
- higher exposure ([1]; subjects receiving a potent CYP3A/P-gp inhibitor): ~2 fold
- mean increase in AUC vs normal renal function ([1]; subjects with moderate renal impairment): 1.6 fold
- CL/F, geometric mean (% CV) [2, 5]: 57.3 (30.1) L/hr
- V/F, geometric mean (% CV) [2, 5]: 6140 (47.0) L
- t1/2, geometric mean (% CV) [2, 5]: 74.2 (25.2) h
- CL/F, geometric mean (% CV) [2, 6]: 57.2 (39.7) L/hr
- V/F, geometric mean (% CV) [2, 6]: 6930 (48.6) L
- tolerability ([2]; vibegron 75 mg and rifampin, healthy male and female subjects): well tolerated
- subjects with an AE related to study drug ([2]; vibegron 75 mg single doses and rifampin 600 mg QD, 3 of 20 subjects): 15%
- AUC0-inf higher than healthy matched controls ([3]; mild renal impairment): 49%
- CLR reduced compared to healthy matched controls ([3]; mild renal impairment): 39%
- Cmax higher than healthy matched controls ([3]; mild renal impairment): 96%
- AUC0-inf higher than healthy matched controls ([3]; moderate renal impairment): 106%
- CLR reduced compared to healthy matched controls ([3]; moderate renal impairment): 65%
- Cmax higher than healthy matched controls ([3]; moderate renal impairment): 68%
- AUC0-inf higher than healthy matched controls ([3]; severe renal impairment): 83%
- CLR reduced compared to healthy matched controls ([3]; severe renal impairment): 82%
- Cmax higher than healthy matched controls ([3]; severe renal impairment): 42%
- AUC0-inf, geometric least squares mean [3, 7]: 1540 ng·h/mL
- Apparent terminal t1/2, geometric mean (% geometric CV) [3, 7]: 98.8 (13.9) hr
- CL/F, geometric least squares mean [3, 7]: 64.9 L/h
- CLR, geometric mean (% geometric CV) [3, 7]: 10.4 (20.2) L/hr
- Cmax, geometric least squares mean [3, 7]: 107 ng/mL
- Fe[urine]48 hr, geometric mean (% geometric CV) [3, 7]: 7.9% and 7.9 (43.0) %
- Apparent terminal t1/2, geometric mean (% geometric CV) ([3]; mild renal impairment): 96.2 (11.5) hr
- CL/F, geometric least squares mean ([3]; mild renal impairment): 43.6 L/h
- CLR, geometric mean (% geometric CV) ([3]; mild renal impairment): 6.3 (31.1)^c L/hr
- Cmax, geometric least squares mean ([3]; mild renal impairment): 210 ng/mL
- Fe[urine]48 hr, geometric mean (% geometric CV) ([3]; mild renal impairment): 8.5% and 8.5 (43.9)^c %
- AUC0-inf, geometric least squares mean ([3]; moderate renal impairment): 3170 ng·h/mL
- Apparent terminal t1/2, geometric mean (% geometric CV) ([3]; moderate renal impairment): 108 (21.0) hr
- CL/F, geometric least squares mean ([3]; moderate renal impairment): 31.5 L/h
- CLR, geometric mean (% geometric CV) ([3]; moderate renal impairment): 3.6 (34.5) L/hr
- Fe[urine]48 hr, geometric mean (% geometric CV) ([3]; moderate renal impairment): 5.5% and 5.5 (53.2) %
- Tmax (median) ([3]; moderate renal impairment): 78 min
- AUC0-inf, geometric least squares mean ([3]; severe renal impairment): 2820 ng·h/mL
- Apparent terminal t1/2, geometric mean (% geometric CV) ([3]; severe renal impairment): 131 (10.0) hr
- CL/F, geometric least squares mean ([3]; severe renal impairment): 35.5 L/h
- CLR, geometric mean (% geometric CV) ([3]; severe renal impairment): 1.9 (30.9) L/hr
- Cmax, geometric least squares mean ([3]; severe renal impairment): 152 ng/mL
- Fe[urine]48 hr, geometric mean (% geometric CV) ([3]; severe renal impairment): 2.1% and 2.1 (57.6) %
- Tmax (median) ([3]; severe renal impairment): 30 min
- CL/F increase per one mL/min/1.73 m^2 increase in eGFR ([3]; slope of linear regression): ~0.8%
- AUC0-inf, geometric least squares mean [4, 7]: 1440 ng·h/mL
- CL/F, geometric mean (% geometric CV) [4, 7]: 68.3 (36.0%) L/hr
- Cmax, geometric least squares mean [4, 7]: 125 ng/mL
- AUC0-inf, geometric least squares mean ([4]; moderate hepatic impairment): 1820 ng·h/mL
- Apparent terminal t1/2, geometric mean (% geometric CV) ([4]; moderate hepatic impairment): 94.5 (8.88%) hr
- CL/F, geometric mean (% geometric CV) ([4]; moderate hepatic impairment): 56.0 (31.2%) L/hr
- Cmax, geometric least squares mean ([4]; moderate hepatic impairment): 168 ng/mL
